Measurements from US9326973B2, “Hepatitis C virus inhibitors” (priority 2012, dated 2016).

System: HCV replicon, genotype-1a variant with glutamine 30 changed to glutamate in the NS5A protein
Assay: microbe, parasite or virus in culture
Format: cell-based, HCV genotype 1a
Conditions: HCV replicon genotype 1a Q30E (Q→E) variant; test compound titrated with an NS5A-targeting compound (BMS-790052 fixed at 200 nM); ranking of synergist activity
Outline: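 Synergy was assessed by combining several fixed amounts of an NS5A-targeting compound with a titration of the second compound of interest.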

Row | SMILES | Fold-Synergistic 1a (Q30E)
1 | COC(=O)N[C@H](C(=O)NC1(c2nc(-c3ccc(-c4ccc(-c5c[nH]c(C6(NC(=O)[C@@H](NC(=O)OC)C(C)C)Cc7ccccc7C6)n5)cc4)cc3)c[nH]2)Cc2ccccc2C1)C(C)C [Compound N-18] | <10 fold
2 | CC(C)CC(=O)NC1(c2nc(-c3ccc(-c4ccc(-c5c[nH]c(C6(NC(=O)CC(C)C)Cc7ccccc7C6)n5)cc4)cc3)c[nH]2)Cc2ccccc2C1 [Compound N-19] | <10 fold
3 | COC(=O)N[C@H](C(=O)NC1(c2nc(-c3ccc(-c4ccc(-c5c[nH]c(C6(NC(=O)[C@@H](NC(=O)OC)C(C)C)CC6)n5)cc4)cc3)c[nH]2)CC1)C(C)C [Compound N-20] | <10 fold
4 | CC(C)CC(=O)NC1(c2nc(-c3ccc(-c4ccc(-c5c[nH]c(C6(NC(=O)CC(C)C)CC6)n5)cc4)cc3)c[nH]2)CC1 [Compound N-21] | <10 fold
5 | COC(=O)N[C@@H](C(=O)NC1(c2nc(-c3ccc(-c4ccc(-c5c[nH]c(C6(NC(=O)[C@H](NC(=O)OC)C(C)C)CCCCC6)n5)cc4)cc3)c[nH]2)CCCCC1)C(C)C [Compound N-22] | >10 fold
6 | COC(=O)N[C@H](C(=O)NC1(c2nc(-c3ccc(-c4ccc(-c5c[nH]c(C6(NC(=O)[C@@H](NC(=O)OC)C(C)C)CCCCC6)n5)cc4)cc3)c[nH]2)CCCCC1)C(C)C [Compound N-23] | <10 fold
7 | CC(C)CC(=O)NC1(c2nc(-c3ccc(-c4ccc(-c5c[nH]c(C6(NC(=O)CC(C)C)CCCCC6)n5)cc4)cc3)c[nH]2)CCCCC1 [Compound N-24] | <10 fold
8 | COC(=O)N[C@H](C(=O)NC(C)(C)c1nc(-c2ccc(-c3ccc(-c4c[nH]c(C(C)(C)NC(=O)[C@@H](NC(=O)OC)C(C)C)n4)cc3)cc2)c[nH]1)C(C)C [Compound N-25] | <10 fold
9 | CC(C)CC(=O)NC(C)(C)c1nc(-c2ccc(-c3ccc(-c4c[nH]c(C(C)(C)NC(=O)CC(C)C)n4)cc3)cc2)c[nH]1 [Compound N-26] | <10 fold
10 | COC(=O)N[C@@H](C(=O)N[C@@H](CC(C)C)c1nc(-c2ccc(-c3ccc(-c4c[nH]c([C@H](CC(C)C)NC(=O)[C@H](NC(=O)OC)C(C)C)n4)cc3)cc2)c[nH]1)C(C)C [Compound N-29] | >10 fold
11 | COC(=O)N[C@H](C(=O)N[C@@H](CC(C)C)c1nc(-c2ccc(-c3ccc(-c4c[nH]c([C@H](CC(C)C)NC(=O)[C@@H](NC(=O)OC)C(C)C)n4)cc3)cc2)c[nH]1)C(C)C [Compound N-30] | <10 fold
12 | CC(C)CC(=O)N[C@@H](CC(C)C)c1nc(-c2ccc(-c3ccc(-c4c[nH]c([C@H](CC(C)C)NC(=O)CC(C)C)n4)cc3)cc2)c[nH]1 [Compound N-31] | >10 fold
13 | CCC(C)[C@H](NC(=O)[C@H](NC(=O)OC)C(C)C)c1nc(-c2ccc(-c3ccc(-c4c[nH]c([C@@H](NC(=O)[C@H](NC(=O)OC)C(C)C)C(C)CC)n4)cc3)cc2)c[nH]1 (stereo partly shown) [Compound N-32] | >10 fold
14 | CCC(C)[C@H](NC(=O)[C@@H](NC(=O)OC)C(C)C)c1nc(-c2ccc(-c3ccc(-c4c[nH]c([C@@H](NC(=O)[C@@H](NC(=O)OC)C(C)C)C(C)CC)n4)cc3)cc2)c[nH]1 (stereo partly shown) [Compound N-33] | >10 fold
15 | CCC(C)[C@H](NC(=O)CC(C)C)c1nc(-c2ccc(-c3ccc(-c4c[nH]c([C@@H](NC(=O)CC(C)C)C(C)CC)n4)cc3)cc2)c[nH]1 (stereo partly shown) [Compound N-34] | >100 fold
16 | COC(=O)N[C@H](C(=O)N[C@H](c1nc(-c2ccc(-c3ccc(-c4c[nH]c([C@@H](NC(=O)[C@@H](NC(=O)OC)C(C)C)C(C)(C)C)n4)cc3)cc2)c[nH]1)C(C)(C)C)C(C)C [Compound N-35] | >100 fold
